Measurements published in US20250073164A1, “IONIZABLE DISULFIDE LIPIDS AND LIPID NANOPARTICLES DERIVED THEREFROM” (PROVIDENCE THERAPEUTICS HOLDINGS INC., priority 2021, published 2025).

What was measured:
[1] = Surface pKa of LNPs, TNS fluorescence assay; format: physicochemical; details: LNPs formed with the ionizable lipid, pH at 50% LNP protonation
Experimental: The surface pKa values of LNPs were determined as follows. Briefly, solutions of 100 mM citrate buffer at, 100 mM Tris-HCl and 50 mM sodium bicarbonate-sodium hydroxide buffer were titrated to pH values varying by 1 from 3.0 to 11.0 and aliquoted into a clear 96-well plate. LNPs and 2-(p-toluidinyl)naphthalene-6-sulfonic acid (TNS) were diluted into these solutions to obtain a final concentration of 20 μM lipid and 6 μM TNS, respectively. Fluorescence intensity was read on a Glowmax discover plate reader at an excitation of 322 nm and an emission of 430 nm. pKa values were calculated as the pH corresponding to 50% LNP protonation, assuming minimum and maximum fluorescence values corresponded to zero and 100% protonation, respectively.

[2] = test system: gp33 and gp34 specific T-cells; assay: In vivo activity of LNPs: specific CD8 T-cells expansion in mice; details: LNPs prepared using the compound, payload 3-GP mRNA (epitopes encoding gp33/34)
Experimental: LNPs prepared using compounds 100, 105, 106 and 109 respectively were evaluated for specific CD8 T-cells expansion in mice where the payload is 3-GP mRNA (comprising epitopes encoding gp33/34).

[3] = Lipids stability characterized by 1H NMR; format: physicochemical; parameters: key: +: the lipid is stable; Minor: the main characteristic peaks of the lipid are present, no major change of the ^1H NMR spectrum is observed, but some extra peaks appearance observed; Major: main the characteristic peaks of the lipid underwent transformation, some peaks can be missing or decreased in intensity, impurity peaks either increased in size or represent main peaks, as observed on ^1H NMR
Experimental: The lipids stability was evaluated by ^1H NMR at −20° C. and at room temperature. “+” means the lipid is stable, “Minor” means the main characteristic peaks of the lipid are present, no major change of the ^1H NMR spectrum is observed, but some extra peaks appearance observed. “Major” means main the characteristic peaks of the lipid underwent transformation, some peaks can be missing or decreased in intensity, impurity peaks either increased in size or represent main peaks, as observed on ^1H NMR. “n.d.” means “not determined”.

| Compound | Surface pKa [1] | specific CD8 T-cells expansion [2] | Lipids stability characterized by 1H NMR, Room Temperature 1 week ([3]; room temperature) | Lipids stability characterized by 1H NMR, Room Temperature 2 months ([3]; room temperature) | Lipids stability characterized by 1H NMR, Room Temperature 2 weeks ([3]; room temperature) | Lipids stability characterized by 1H NMR, Room Temperature 3 months ([3]; room temperature, 3 months) | Lipids stability characterized by 1H NMR, Room Temperature 3 weeks ([3]; room temperature) | Lipids stability characterized by 1H NMR, Room Temperature 4 weeks ([3]; room temperature) | Lipids stability characterized by 1H NMR, At −20° C. ([3]; 3 months) |
| --- | --- | --- | --- | --- | --- | --- | --- | --- | --- |
| CCCCCCCCCCCCCCC(/C=C(\C)CCC=C(C)C)OC(=O)CSSCC(=O)OCCCN(C)C (centres unmarked) [Compound 100] | 7.5 | effective at expanding both gp33 and gp34 specific T-cells | + | Major | Minor | Major | Minor | Minor | + |
| CCCCC/C=C\CCC(CCCCCCCCCCCCCC)C(CCCCCCCCCCCCCC)OC(=O)CCSSCCC(=O)OCCCN(C)C (centres unmarked) [Compound 109, 3-(dimethylamino)propyl-3-[[3-[2-[(Z)-non-3-enyl]-1-tetradecyl-hexadeoxy]-3-oxo-propyl]disulfanyl]propanoate] | 7.0 | effective at expanding both gp33 and gp34 specific T-cells | + | + | + |  | + | + | + |
